Source: patent US7473434B2, “Maca extract and cosmetic composition containing such an extract” (Laboratoires Expanscience, priority 2003, dated 2009)
“And” between values parts separate entries of the source, which are not always exact repeats. Equal values may be shown once.

System: Jurkat human lymphoid cells
Experiment: Lipid peroxide (LP) quantity in cells with or without UV irradiation, fluorescent probe, flow cytometry
Assay type: cell-based
Details: for Fluorescence intensity Mean: mean of triplicate; for % of control: relative LP quantity; for 1/fluorescence intensity: relative quantity of lipid peroxides
Source text: The purpose of the study is to evaluate the effects of the maca peptide extract on the lipid peroxidation rate (LP) in human cells (Jurkat) exposed or not to UVA+UVB radiation. LP measurement was made with a specific fluorescent probe by flow cytometry. This method has the advantage of showing great sensitivity when measuring the fluorescence of individual cells, over a large number of cells (10 000 cells analysed per sample). The cells used are Jurkat human lymphoid cells distributed in 24-well plates with 8.10^5 cells/well. The culture medium is RPMI 1640 (Invitrogen 31870-025) at […] and in the presence of 5% CO2. The test medium is MEM without phenol red and without calf serum (Polylabo 5503401). Tests are conducted with the peptide extract obtained in example 1, with twofold dilution i.e. in the form of an extract with 5% dry matter. A solution S1 containing 2% of this extract is prepared in the test medium. The control used is butyl hydroxyanisol (BHA Sigma ref. B 1253) in a […] solution in absolute ethanol. Tests are conducted with a solution S2 containing 100 μM BHA prepared in the test medium. […] Rad. Biol. Med., 1997, 22, 13-100) in a 5 μM solution in absolute ethanol. The tests are conducted using a 1 μM probe solution S3 prepared in the test medium. The human cells are pre-incubated in the culture medium, then washed in the test medium. They are subsequently incubated in the presence of the S1 solution of the peptide extract or the S2 control solution. The probe solution S3 is added to each batch for LP assay. After 45 minutes incubation, the fluorescent probe is removed by washing in the test medium. Part of the batches are then irradiated with […], another part without irradiation used as control. After 20 minutes incubation the fluorescence parameters are measured by flow cytometry. Determination of the relative quantity of lipid peroxides (LP) is based on measurement of the reduction in fluorescence of the probe integrated in the cell membranes. An increase in the fluorescence signal translates a reduction in the basal rate of membrane lipid peroxides. The studies are conducted in triplicate. The results obtained are expressed as the value of fluorescence intensity, and percentages with respect to the control are calculated using the values of fluorescence intensity.

Structure (SMILES): COc1ccc(O)c(C(C)(C)C)c1 [BHA, butyl hydroxyanisol]
- Fluorescence intensity Mean (with UV irradiation, BHA 100 μM, extract 2% solution): 374.67
- % of control (with UV irradiation, Test +UV = 100): 50%
- 1/fluorescence intensity (with UV irradiation): 0.00267
- Fluorescence intensity (with UV irradiation, single replicate values, BHA 100 μM, extract 2% solution): 362.40 and 368.20 and 393.42
- Fluorescence intensity Mean (without UV, BHA 100 μM, 2% MC101): 753
- % of control (without UV, Control -UV = 100): 67%
- 1/fluorescence intensity (without UV): 0.00133
- Fluorescence intensity n = 10000 cells (without UV, single replicate values, BHA 100 μM, 2% MC101): 741.05 and 745.64 and 770.93
